Measured values as given in patent publication US9924717B2, “Molecules having pesticidal utility, and intermediates, compositions, and processes, related thereto” (Dow AgroSciences LLC, priority 2016, dated 2018).

Experiments:
Type in all cases: in vivo
[1] = tested on: Cabbage Looper (Trichoplusia ni, TRIPNI) (CL); experiment: Bioassays on Cabbage Looper (CL), 128-well diet tray assay; conditions: Table ABC rating, Cabbage Looper
How it was run: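 Cabbage looper (Trichoplusia ni) larvae at the second instar stage were tested in a 128-well diet tray. Each 3 mL well held 1 mL of artificial diet treated with test molecule dissolved in 50 μL of 90:10 acetone-water and allowed to dry, eight wells per treatment. One to five larvae were added per well. Trays were sealed with clear self-adhesive covers and kept at 25° C., 14:10 light-dark for five to seven days. Percent mortality per well was averaged across the eight wells.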

[2] = tested on: Green Peach Aphid (Myzus persicae, MYZUPE) (GPA); experiment: Bioassays on Green Peach Aphid (GPA), cabbage seedling foliar spray; conditions: Table ABC rating
Method: Example B: Bioassays on Green Peach Aphid (Myzus persicae, MYZUPE) (“GPA”) Certain molecules disclosed in this document were tested against GPA using procedures described in the following example. In the reporting of the results, the “GPA & YFM Rating Table” was used (See Table Section). Cabbage seedlings grown in 3-inch pots, with 2-3 small (3-5 cm) true leaves, were used as test substrate. The seedlings were infested with 20-50 GPA (wingless adult and nymph stages) one day prior to chemical application. Four pots with individual seedlings were used for each treatment. Test molecules (2 mg) were dissolved in 2 mL of acetone/methanol (1:1) solvent, forming stock solutions of 1000 ppm test molecule. The stock solutions were diluted 5× with 0.025% Tween 20 in water to obtain the solution at 200 ppm test molecule. A hand-held aspirator-type sprayer was used for spraying a solution to both sides of […] leaves until runoff. Reference plants (solvent check) were sprayed with the diluent only containing 20% by volume of acetone/methanol (1:1) solvent. Treated plants were held in a holding room for three days at approximately 25° C. and ambient relative humidity (RH) prior to grading. Evaluation was conducted by counting the number of live aphids per plant under a microscope. Percent Control was measured by using Abbott's correction formula (W. S. Abbott, “A Method of Computing the Effectiveness of an Insecticide” J. Econ. Entomol. 18 (1925), pp. 265-267) as follows. Corrected % Control=100*(X−Y)/X • where • X=No. of live aphids on solvent check plants and • Y=No. of live aphids on treated plants The results are indicated in the table entitled “Table ABC: Biological Results” (See Table Section).

[3] = tested on: Beet Armyworm (Spodoptera exigua, LAPHEG) (BAW); experiment: Bioassays on Beet Armyworm (BAW), 128-well diet tray assay; conditions: Table ABC rating, Beet Armyworm
How it was run: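 Beet armyworm (Spodoptera exigua) was tested with a 128-well diet tray format. Each 3 mL well held 1 mL of artificial diet treated with the test molecule in 50 μL of 90:10 acetone-water and allowed to dry, across eight wells. One to five second instar larvae were added per well. Trays were sealed with clear self-adhesive covers and kept at 25° C. under 14:10 light-dark for five to seven days. Percent mortality was scored per well and averaged across the eight wells.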

[4] = tested on: Yellow Fever Mosquito (Aedes aegypti, AEDSAE) (YFM); experiment: Bioassays on Yellow Fever Mosquito (YFM), 96-well plate larval assay; conditions: Table ABC rating
Method: Example C: Bioassays on Yellow Fever Mosquito (Aedes aegypti, AEDSAE) (“YFM”)
Certain molecules disclosed in this document were tested against YFM using procedures described in the following paragraph. In the reporting of the results, the “GPA & YFM Rating Table” was used (See Table Section).
Master plates containing 400 μg of a molecule dissolved in 100 μL of dimethyl sulfoxide (DMSO) (equivalent to a 4000 ppm solution) are used. A master plate of assembled molecules contains 15 μL per well. To this plate, 135 μL of a 90:10 water:acetone mixture is added to each well. A robot (Biomek® NXP Laboratory Automation Workstation) is programmed to dispense 15 μL aspirations from the master plate into an empty 96-well shallow plate (“daughter” plate). There are 6 reps (“daughter” plates) created per master. The created daughter plates are then immediately infested with YFM larvae.
The day before plates are to be treated, mosquito eggs are placed in Millipore water containing liver powder to begin hatching (4 g. into 400 mL). After the daughter plates are created using the robot, they are infested with 220 μL of the liver powder/larval mosquito mixture (about 1 day-old larvae). After plates are infested with mosquito larvae, a non-evaporative lid is used to cover the plate to reduce drying. Plates are held at room temperature for 3 days prior to grading. After 3 days, each well is observed and scored based on mortality. The results are indicated in the table entitled “Table ABC: Biological Results” (See Table Section).

Structure (SMILES) | pest or weed control at 50 µg/cm2 [1] [%] | GPA [2] | pest or weed control at 50 µg/cm2 [3] [%] | YFM [4]
O=C(NC1CC1)c1ccc(/C(F)=C/C(c2cc(Cl)c(Cl)c(Cl)c2)C(F)(F)F)cc1C(F)(F)F (stereo not drawn) [F3, (Z)—N-Cyclopropyl-4-(1,4,4,4-tetrafluoro-3-(3,4,5-trichlorophenyl)but-1-en-1-yl)-2-(trifluoromethyl)benzamide] | 50 to 100 | B (More than 0-Less than 80) | 50 to 100 | –
CO/N=C\NC(=O)c1ccc(/C(F)=C/C(c2cc(Cl)c(Cl)c(Cl)c2)C(F)(F)F)cc1C(F)(F)F (mixture of isomers) [F19, N-((E/Z)-(methoxyimino)methyl)-4-((Z)-1,4,4,4-tetrafluoro-3-(3,4,5-trichlorophenyl)but-1-en-1-yl)-2-(trifluoromethyl)benzamide] | 50 to 100 | B (More than 0-Less than 80) | 50 to 100 | –
O=C(NC1CC(F)(F)C1)c1ccc(/C(F)=C/C(c2cc(Cl)c(Cl)c(Cl)c2)C(F)(F)F)cc1C(F)(F)F (stereo not drawn) [F7, (Z)—N-(3,3-difluorocyclobutyl)-4-(1,4,4,4-tetrafluoro-3-(3,4,5-trichlorophenyl)but-1-en-1-yl)-2-(trifluoromethyl)benzamide] | 50 to 100 | A (80-100) | 50 to 100 | –
O=C(NC1CCC(F)(F)CC1)c1ccc(/C(F)=C/C(c2cc(Br)c(Cl)c(Br)c2)C(F)(F)F)cc1C(F)(F)F (stereo not drawn) [F32, (Z)-4-(3-(3,5-Dibromo-4-chlorophenyl)-1,4,4,4-tetrafluorobut-1-en-1-yl)-N-(4,4-difluorocyclohexyl)-2-(trifluoromethyl)benzamide] | 50 to 100 | – | 50 to 100 | A (80-100)
CC(NC(=O)c1ccc(/C(F)=C/C(c2cc(Cl)cc(Cl)c2)C(F)(F)F)cc1C(F)(F)F)C(F)(F)F (stereo not drawn) [F15, 4-((Z)-3-(3,5-Dichlorophenyl)-1,4,4,4-tetrafluorobut-1-en-1-yl)-2-(trifluoromethyl)-N-(1,1,1-trifluoropropan-2-yl)benzamide] | 50 to 100 | – | 50 to 100 | A (80-100)
Cc1cc(C(/C=C(\F)c2ccc(C(=O)NC(C)C(F)(F)F)c(C(F)(F)F)c2)C(F)(F)F)cc(C)c1Cl (stereo not drawn) [F30, 4-((Z)-3-(4-Chloro-3,5-dimethylphenyl)-1,4,4,4-tetrafluorobut-1-en-1-yl)-2-(trifluoromethyl)-N-(1,1,1-trifluoropropan-2-yl)benzamide] | 50 to 100 | – | 50 to 100 | A (80-100)
CC(NC(=O)c1ccc(/C(F)=C/C(c2cc(Cl)c(Cl)c(Cl)c2)C(F)(F)F)cc1C(F)(F)F)c1ccccn1 (stereo not drawn) [F52, (Z)—N-(1-(Pyridin-2-yl)ethyl)-4-(1,4,4,4-tetrafluoro-3-(3,4,5-trichlorophenyl)but-1-en-1-yl)-2-(trifluoromethyl)benzamide] | 50 to 100 | – | 50 to 100 | A (80-100)
O=C(NC1CCC(F)(F)CC1)c1ccc(/C(F)=C/C(c2cc(Cl)cc(Cl)c2)C(F)(F)F)cc1C(F)(F)F (stereo not drawn) [F25, (Z)-4-(3-(3,5-Dichlorophenyl)-1,4,4,4-tetrafluorobut-1-en-1-yl)-N-(4,4-difluorocyclohexyl)-2-(trifluoromethyl)benzamide] | 50 to 100 | – | 50 to 100 | A (80-100)
